Data published in US10226463B2, “Fluorouracil glycolate compound for the treatment of warts, molluscum contagiosum” (priority 2012, dated 2019).

Experiments:
[1] = systemic absorption after topical application to the lesion; format: in vivo; conditions: saturation of the lesion
Description: (§1) Fluorouracil Glycolate is formed by a chemical reaction between fluorouracil and glycolic acid, in an acid-base reaction under the Lowry-Bronsted model in a typical acid-base reaction. The new unique compound when formed is stable at room temperature for approximately one year. The molecular weight of the new compound is 205.72. The magic wart cream formulation, a thick cream resembling peanut butter, has a consistency designed for easy application to the lesions with a toothpick. This is to eliminate any messy, troublesome dribbling as this was a problem encountered early and then overcome on a trial and error basis, resulting in the thicker consistency. By applying the magic wart cream to only the center of the wart, and not to the edges, it focuses the target of the high-sulfur containing, amino acid rich matrix of keratin to where the fluorouracil glycolate can pool. Then it forms a depot within the small socket of the lesion. This dictates the nature of the liberation absorption and distribution the drug delivery system.

[2] = stability of the formed compound at room temperature; format: physicochemical
Description: as §1

Question: What does the source list for `O=C(O)CO.O=c1[nH]cc(F)c(=O)[nH]1` [Fluorouracil Glycolate]?
Answer: systemic absorption [1]: without observed systemic absorption; stable at room temperature (duration) [2]: approximately one
